# Measurements as given in PubChem BioAssay AID1083212 (The Scripps Research Institute Molecular Screening Center, 2014).
# Calls of active or inactive are those of the source.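 The calls were made as follows: active = IC50 of 10 µM or lower; inactive = IC50 above 10 µM.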
# Target: Tyrosyl-DNA phosphodiesterase 2 (Homo sapiens) (UniProt O95551)
# Assay: human TDP2 enzyme inhibitors, late-stage follow-up, biochemical, epi absorbance, IC50 (AID 1083212)
# Details: recombinant TDP2, T5PNP hydrolysis, p-nitrophenol absorbance 415 nm
# Chain of Tyrosyl-DNA phosphodiesterase 2 (Homo sapiens) (O95551 whole entry, looked up): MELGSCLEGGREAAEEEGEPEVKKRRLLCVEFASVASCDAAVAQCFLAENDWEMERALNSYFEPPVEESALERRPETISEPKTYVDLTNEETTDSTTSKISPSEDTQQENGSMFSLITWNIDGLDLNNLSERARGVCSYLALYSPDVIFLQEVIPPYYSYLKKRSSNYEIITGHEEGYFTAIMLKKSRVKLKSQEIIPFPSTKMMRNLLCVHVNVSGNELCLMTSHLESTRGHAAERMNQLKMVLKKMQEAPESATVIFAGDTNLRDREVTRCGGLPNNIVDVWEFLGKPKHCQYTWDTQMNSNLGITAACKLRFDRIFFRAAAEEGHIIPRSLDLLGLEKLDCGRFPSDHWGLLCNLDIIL
row,IC50,SMILES
1,> 128 µM (inactive),Cc1ccc(NC2=C/C(=N\S(=O)(=O)c3cccs3)c3ccccc3C2=O)cc1
2,> 128 µM (inactive),COc1ccc(CNC(=S)Nc2ccc(S(N)(=O)=O)cc2)cc1
3,1.32 µM,O=C(O)c1ccc(NC2=C/C(=N/S(=O)(=O)c3cccs3)c3ccccc3C2=O)cc1
